Measurements published in paper PMC9229263, “Pyrazolo[4,3-e]tetrazolo[1,5-b][1,2,4]triazine Sulfonamides as Novel Potential Anticancer Agents: Cytotoxic and Genotoxic Activities In Vitro” (Molecules, 2022).
Like-named read-outs stand apart in the source and are kept apart here.

Key:
[1] = tested on: BxPC-3; set-up: method as in PMID 20021699, PMID 24172061; settings: cited from earlier work
[2] = tested on: HCT 116; settings: cited from earlier work
[3] = tested on: HT-29 and DLD-1; settings: HT-29 and DLD-1, range; cited from earlier work
[4] = tested on: HeLa; experiment: MTT assay, HeLa; type: cell-based; settings: Homo sapiens, 72 h, 95% confidence intervals in parentheses
Text: (§1) In order to characterize the effect of tested compounds on cell viability, the MTT test was used. MTT microplate assay enables evaluation of cell viability via measuring cell metabolic activity represented as an ability to incorporate and reduce yellow tetrazolium salt to the violet-blue formazan compounds via the activity of mitochondrial succinate dehydrogenase enzyme. The number of metabolically active cells positively correlates with the amount of reduced tetrazolium salt. The absorbance of formazan solution obtained after solubilizing formazan crystals in an organic solvent, e.g., DMSO, can be measured spectrophotometrically at 570 nm.
(§2) The suspension of 8–10 × 10^3 (adherent cells) and 8 × 10^4 (PBMCs) cells in 200 µL and 100 µL medium, respectively, was transferred to each well of 96-well microplate. Plates were incubated for 24 h in controlled conditions (5% CO2; 37 °C) to ensure cell growth. Subsequently, the medium was replaced, and the cells were exposed to tested compounds in a wide range of concentrations (0.1–6 µM). Before investigated compounds were diluted in a culture medium, they had been diluted in DMSO in the final concentration of <0.5% v/v, which were not toxic to the cells. The experimental design included blanks (wells without cells) as well as non-treated control cells. Following the 72 h incubation period, a volume of 20 µL of fresh tetrazolium salt solution (5 mg/mL in PBS) was added per well. In the case of adherent cancer cells, after 3 h of incubation (conditions as previously), the solutions were replaced by 100 µL of DMSO to dissolve formazan complexes. In contrast, the solutions in plates containing PBMCs were not removed and a 100 µL mixture of 50% DMF and 20% SDS was added to each well for the next 24 h. Absorbance was measured via spectrophotometer (microplate reader Power Wave XS BioTek Instruments, Inc., Winooski, VT, USA) at 570 nm. […]

[5] = tested on: HCT 116; experiment: MTT assay, HCT 116; type: cell-based; settings: Homo sapiens; HCT 116, MTT, 72 h; 95% confidence intervals in parentheses
Text: as §1, §2

[6] = tested on: PC-3; experiment: MTT assay, PC-3; type: cell-based; settings: Homo sapiens; PC-3, MTT, 72 h; 95% confidence intervals in parentheses
Text: as §1, §2

[7] = tested on: BxPC-3; experiment: MTT assay, BxPC-3; type: cell-based; settings: Homo sapiens; BxPC-3, MTT, 72 h; 95% confidence intervals in parentheses
Text: as §1, §2

[8] = tested on: Hs27; experiment: MTT assay, Hs27 fibroblasts (normal); type: cell-based; settings: Homo sapiens, 72 h, 95% confidence intervals in parentheses
Text: as §1, §2

[9] = tested on: PBMCs; experiment: MTT assay, PBMCs (normal); type: cell-based; settings: Homo sapiens, PBMC, PBMCs normal cells, 72 h, 95% confidence intervals in parentheses
Text: Human PBMCs were isolated from the leucocyte buffy coat obtained from the blood of healthy and nonsmoking volunteers (aged 18–65). Leukocyte buffy coats were collected from Blood Bank in Lodz, Poland. The use of the leukocyte buffy coat in the investigation of the effect of novel tricyclic pyrazolo[4,3-e][1,2,4]triazine derivatives on human PBMCs was approved by the Bioethics Committee for Scientific Investigation, University of Lodz (agreement no. 8/KBBN-UŁ/I//2019). Isolation of PBMCs was performed by density gradient of Lymphosep (25 min, 1400 rpm, RT). PBMCs were cultured in RPMI-1640 medium, supplemented with 1% (v/v) penicillin–streptomycin solution, 1.5% PHA and 10% (v/v) FBS.
as §1
(§3) The suspension of 8–10 × 10^3 (adherent cells) and 8 × 10^4 (PBMCs) cells in 200 µL and 100 µL medium, respectively, was transferred to each well of 96-well microplate. Plates were incubated for 24 h in controlled conditions (5% CO2; 37 °C) to ensure cell growth. Subsequently, the medium was replaced, and the cells were exposed to tested compounds in a wide range of concentrations (0.1–6 µM). Before investigated compounds were diluted in a culture medium, they had been diluted in DMSO in the final concentration of <0.5% v/v, which were not toxic to the cells. […] Absorbance was measured via spectrophotometer (microplate reader Power Wave XS BioTek Instruments, Inc., Winooski, VT, USA) at 570 nm. […]

[10] = tested on: PC-3; experiment: Comet assay, alkaline version (pH > 13), PC-3; type: cell-based, human; settings: PC-3, 24 h, range over 0.5, 1 and 2 × IC50
Experimental: (§4) The alkaline version (pH > 13), as well as the neutral version (pH 9.0) of the comet assay, was performed on cancer cell lines according to the procedures described by Singh et al. with modifications. 12-well plates were seeded at a density of 1.2–1.5 × 10^5 cells per well. […] In addition, negative and positive controls (cells treated only with DMSO at <0.5% and with bleomycin at 20 µM, respectively) were included.
(§5) Following a 24 h incubation (5% CO2; 37 °C), the cells were trypsinized and transferred to Eppendorf tubes and centrifuged (10 min, 1400 rpm, 4 °C). The obtained pellet was resuspended in 100 µL of fresh PBS, mixed with 0.75% LMP agarose dissolved in PBS, and embedded onto microscope slides, previously precoated with 0.5% NMP agarose. The Trypan Blue dye exclusion test was used to determine the number of viable cells present in a cell suspension. […] The slides after agarose solidification were placed in a fresh, cold lysis buffer (pH 10, 1% Triton X-100, 2.5 M NaCl, 100 mM EDTA, 10 mM Tris) for 1 h (4 °C, in dark), which subsequently was replaced by electrophoretic solution (1 mM EDTA, 300 mM NaOH, pH > 13) for another 40 min. Afterward, electrophoresis was performed (25 min, 0.73 V/cm, 300 mA, 4 °C, in dark). Subsequently, the slides were neutralized with 0.4 M Tris, pH 7.5 (20 min, 4 °C, in dark) and washed 3× in distilled water. Eventually, slides were drained, stained with DAPI (1 μg/mL) for at least 1 h (4 °C), and analyzed with fluorescence microscope (Olympus, Tokyo, Japan).
(§6) A total number of 50 randomly selected images were analyzed in the commercially available software CaspLab. Two parallel experiments with aliquots of the same sample of cells were performed for a total of 100 cells. From the available parameters, the percentage of DNA in comet tail was selected as the most appropriate as being negatively associated with the level of DNA cross-links, as well as positively correlated with alkali-labile sites and the amount of DNA single-strand breaks (SSBs) and double-strand breaks (DSBs) (alkaline version of the comet assay). […]

[11] = tested on: HeLa, HCT 116, PC-3, BxPC-3, Hs27, PBMCs; experiment: MTT assay, summary over all tested cells; type: cell-based; settings: Homo sapiens; HCT 116, HeLa, PC-3 and BxPC-3, MTT; read-out: IC50 range in cancer cell lines
Text: as §1, §3

[12] = tested on: HT-29 and DLD-1 cancer cells; set-up: method as in PMID 26089833; settings: mice challenged with HT-29 and DLD-1 cancer cells, two weeks of treatment; cited from earlier work
[13] = tested on: tumor development; set-up: method as in PMID 31371419; settings: zebrafish embryo xenograft model; cited from earlier work
[14] = tested on: HCT 116; experiment: Comet assay, alkaline version (pH > 13), HCT 116; type: cell-based, human; settings: HCT 116, 24 h; for Alkaline Version, median percentage of DNA in comet tail: compound at 2 × IC50, interquartile range in parentheses
Experimental: as §4, §5, §6

[15] = tested on: HCT 116; experiment: Immunocytochemical detection of γ-H2AX; type: cell-based, human; settings: HCT 116, 24 h, highest concentration used (2 × IC50)
Experimental: Immunocytochemical detection of the phosphorylated form of the histone protein component H2AX (γ-H2AX) is a well-known approach to estimate DNA DSB levels in both in vitro [47, 53, 66] and in vivo [67, 68] studies. HCT 116 cells were grown on coverslips in 12-well plates at a density of 1.2 × 10^5 per well for 24 h (5% CO2; 37 °C). Subsequently, the cells were exposed to investigated compounds in two different concentrations (IC50 and 2 × IC50 values with respect to MTT results), by replacing the medium with an appropriate compound concentration. Negative control (cells treated only with DMSO at <0.5%) was also included.
The cells were fixed with 4% paraformaldehyde (10 min), washed twice with PBS, and permeabilized with 0.5% (v/v) Triton X-100/PBS solution (10 min). Afterward, the cells were incubated with a blocking solution containing 1.5% goat serum, and 0.1% Triton in PBS for 10 min and incubated with the primary antibody, anti-gamma-H2AX (phospho-Ser139) (Abcam, Cambridge, UK; 1:100) for 1 h. […]
The slides were examined using a fluorescence microscope (Olympus) at 40× magnification. […] A total number of 150 randomly selected cells from digital images per sample were measured. The data were exported and analyzed in GraphPad Prism 8.0 software system (GraphPad Prism Software Inc., San Diego, CA, USA).

[16] = tested on: PC-3; settings: cited from earlier work
[17] = tested on: HeLa; set-up: method as in doi:10.26650/IstanbulJPharm.2020.0039, PMID 34200051; settings: cited from earlier work

Compound | IC50 [2] [nM] | IC50 [3] [nM] | IC50 [4] [nM] | IC50 [5] [nM] | IC50 [6] [nM] | IC50 [7] [nM] | IC50 [8] [nM] | IC50 [9] [nM] | % of DNA in comet tail, alkaline comet assay [10] | IC50 [16] [nM] | other results
O=c1[nH]cc(F)c(=O)[nH]1 [5-fluorouracil] | 3200 |  |  |  |  |  |  |  |  |  | IC50 [1]: 96100 nM
Cc1nn(-c2ccc(S(=O)(=O)NC(CO)CC(C)C)cc2)c2nn3nnnc3nc12 (centres unmarked) [MM124, reference compound] |  | 160 to 1540 |  |  |  |  |  |  |  |  | 
COC(=O)C1CC(O)CN1S(=O)(=O)c1ccc(-n2nc(C)c3nc4nnnn4nc32)cc1 (centres unmarked) [MM129] |  | 3100 to 3900 | 900 | 600 | 360 | 260 | 1150 | 1110 | 7.4–21.8% |  | IC50 [11]: 130 to 900 nM; tumor mass and volume [12]: significant reduction in tumor mass and volume; tumor development [13]: inhibition of tumor development
Cc1nn(-c2ccc(S(=O)(=O)N[C@@H](C)CO)cc2)c2nn3nnnc3nc12 [MM130] |  |  | 590 | 440 | 220 | 170 | 810 | 770 | 7.4–21.8% |  | Alkaline Version, median percentage of DNA in comet tail [14]: 25.6%; median of the number of γ-H2AX foci per nucleus [15]: 12 foci per nucleus; melting point: 197 to 202 °C
Cc1nn(-c2ccc(S(=O)(=O)N[C@H](C)CO)cc2)c2nn3nnnc3nc12 [MM131] |  | 3100 to 3900 | 410 | 390 | 170 | 130 | 620 | 620 | 19.5–40.3% |  | Alkaline Version, median percentage of DNA in comet tail [14]: 38.8%; % of DNA in comet tail, alkaline comet assay ([14]; range over 0.5, 1 and 2 × IC50): 8–38.8%; median of the number of γ-H2AX foci per nucleus [15]: 15 foci per nucleus; IC50 [11]: 130 to 900 nM
Cc1nn(-c2ccc(S(=O)(=O)N3CCN(C)CC3)cc2)c2nn3nnnc3nc12 [MM137, reference compound] |  | 160 to 1540 |  |  |  |  |  |  |  |  | 
N.N.[Cl][Pt][Cl] [cisplatin] | 9000 |  |  |  |  |  |  |  |  | 9000 | IC50 [17]: 12300 nM
CCc1c2c(nc3ccc(OC(=O)N4CCC(N5CCCCC5)CC4)cc13)-c1cc3c(c(=O)n1C2)COC(=O)[C@]3(O)CC [irinotecan] | 2600 |  |  |  |  |  |  |  |  | 2100 | 
O=C1[O][Pt]2([NH][C@@H]3CCCC[C@H]3[NH]2)[O]C1=O [oxaliplatin] | 72000 |  |  |  |  |  |  |  |  | 100000 | 
